From US10667512B2, “Terpene-containing compositions and methods of making and using them” (Eden Research PLC, priority 2005, dated 2020)
Like-named read-outs stand apart in the source and are kept apart here.

Legend:
S. aureus = assay: MIC of terpene emulsions and fresh or freeze-dried Baker's YP / SAF Mannan encapsulated terpenes; type: cell-based; conditions: for MIC, Bakers Freeze Dried / MIC, Bakers Fresh: encapsulated in Baker's YP; for MIC, SAF Mannan Freeze Dried / MIC, SAF Mannan Fresh: encapsulated in SAF Mannan; for MIC, Emulsion: terpene emulsion
Description: The results of a protocol performed to compare the MIC of fresh versus freeze dried hollow glucan particle encapsulated terpene formulations are shown below in Table 13. A simple terpene emulsion was also tested and the results are shown for comparison.

[1] = Terpene loading into yeast particles, absence of free terpene after centrifugation; type: physicochemical; conditions: for terpene emulsion absorbed and encapsulated per 10 mg of YP: Baker's YP 20 mg/ml; for terpene emulsion absorbed and encapsulated per 125 mg of YP: Baker's YP 250 mg/ml; for Vol. loaded: 500 μl of 250 mg/ml; for % Loaded w/w: terpene to particle weight
Description: (§1) Samples were centrifuged at 14,000×g for 10 minutes and the appearance of free terpene floating on the aqueous layer was scored.
The expression “free terpene” refers to the visible presence of terpene in the centrifuged reaction mixture. The absence of free terpene indicates complete absorption of the terpene by the particles. The highest volume of terpene absorbed by the particles, as evidenced by the absence of free terpene, was recorded as the maximal volume of absorbed terpene emulsion.
as §1
The expression “free terpene” refers to the visible presence of terpene in the centrifuged reaction mixture. The absence of free terpene indicates complete absorption of the terpene by the YP. The highest volume of terpene absorbed by the YP, as evidenced by the absence of free terpene, was recorded as the maximal volume of absorbed terpene emulsion.
Increasing volumes of terpene emulsion were mixed with 250 mg/ml Baker's YP or 250 mg/ml SAF Mannan™ overnight at room temperature as shown in Tables 7 and 8. Samples were centrifuged at 14,000×g for 10 minutes and the appearance of free terpene floating on the aqueous layer was scored. The highest volume of terpene emulsion absorbed by Baker's YP or SAF Mannan™ as evidenced by the absence of free terpene was recorded as the volume of absorbed terpene emulsion. Colour of encapsulated terpenes in the pellet was recorded.
Percentage loaded represents a ratio of the amount of terpene loaded to the amount of particle present (weight for weight).

H. pylori = conditions: in vitro; cited from earlier work
[2] = type: physicochemical
Description: The reactions were incubated for 1, 3, 6, 9 and 24 hours at room temperature or 37° C. After incubation samples were centrifuged at 14,000×g for 10 minutes and the appearance of free terpene floating on the aqueous layer was scored. The highest volume of terpene absorbed by the particles as evidenced by the absence of free terpene was recorded as the volume of absorbed terpene emulsion. Colour of the encapsulated pellet was scored at 24 hours.

[3] = Citral solution and stable suspension; type: physicochemical
Text: In one embodiment the terpene component includes one or more terpenes which contain oxygen.

E. coli = conditions: cited from earlier work

L-carvone
MIC, Bakers Freeze Dried (S. aureus): >0.04 μg/ml terpene | MIC, Bakers Fresh (S. aureus): 0.1 μg/ml terpene | MIC, SAF Mannan Freeze Dried (S. aureus): >0.02 μg/ml terpene | MIC, SAF Mannan Fresh (S. aureus): 0.01 μg/ml terpene | MIC, Emulsion (S. aureus): 3.75 μg/ml terpene | terpene emulsion absorbed and encapsulated per 10 mg of YP [1]: at least 16.5 μl | terpene emulsion absorbed and encapsulated per 125 mg of YP [1]: at least 112.5 μl | Vol. loaded ([1]; maximal loading in Baker's YP): 37.5 µL | % Loaded w/w ([1]; maximal loading in Baker's YP): 33.3 % w/w | Vol. loaded ([1]; maximal loading in SAF Mannan): 112.5 µL | % Loaded w/w ([1]; maximal loading in SAF Mannan): 100% w/w

CC(C)=CCC/C(C)=C/CO [Geraniol]
MIC, Bakers Freeze Dried (S. aureus): 0.06 μg/ml terpene | MIC, Bakers Fresh (S. aureus): 0.03 μg/ml terpene | MIC, SAF Mannan Freeze Dried (S. aureus): >0.03 μg/ml terpene | MIC, SAF Mannan Fresh (S. aureus): 0.02 μg/ml terpene | MIC, Emulsion (S. aureus): 0.47 μg/ml terpene | Vol. loaded ([1]; maximal loading in Baker's YP): 75 µL | % Loaded w/w ([1]; maximal loading in Baker's YP): 67% w/w | Vol. loaded ([1]; maximal loading in SAF Mannan): 150 µL | % Loaded w/w ([1]; maximal loading in SAF Mannan): 133% w/w | concentration that inhibited the growth of H. pylori (H. pylori): 2 mg/L

CC(C)=CCCC(C)=CC=O [Citral, 3,7-dimethyl-2,6-octadien-1-al]
MIC, Bakers Freeze Dried (S. aureus): 0.05 μg/ml terpene | MIC, Bakers Fresh (S. aureus): 0.01 μg/ml terpene | MIC, SAF Mannan Freeze Dried (S. aureus): >0.03 μg/ml terpene | MIC, SAF Mannan Fresh (S. aureus): 0.01 μg/ml terpene | MIC, Emulsion (S. aureus): 0.94 μg/ml terpene | terpene emulsion absorbed and encapsulated per 10 mg of YP [1]: at least 5 μl | terpene emulsion absorbed and encapsulated per 125 mg of YP [1]: at least 75 μl | Vol. loaded ([1]; maximal loading in Baker's YP): 75 µL | % Loaded w/w ([1]; maximal loading in Baker's YP): 67% w/w | Vol. loaded ([1]; maximal loading in SAF Mannan): 150 µL | % Loaded w/w ([1]; maximal loading in SAF Mannan): 133% w/w | protection of citral from oxidation ([2]; in Baker's YP): not by the Baker's YP | protection of citral from oxidation ([2]; in SAF Mannan): protected from oxidation | concentration up to which a solution can be made [3]: up to 500 ppm | concentration up to which a stable suspension can be formed [3]: up to 2500 ppm | concentration in growth media that reduced the concentration of E. coli (E. coli): more than 0.01% | concentration with bactericidal effect (E. coli): 0.08%

C=CCc1ccc(O)c(OC)c1 [Eugenol]
MIC, Bakers Freeze Dried (S. aureus): 0.05 μg/ml terpene | MIC, Bakers Fresh (S. aureus): 0.03 μg/ml terpene | MIC, SAF Mannan Freeze Dried (S. aureus): 0.05 μg/ml terpene | MIC, SAF Mannan Fresh (S. aureus): 0.01 μg/ml terpene | MIC, Emulsion (S. aureus): 0.12 μg/ml terpene | Vol. loaded ([1]; maximal loading in Baker's YP): 75 µL | % Loaded w/w ([1]; maximal loading in Baker's YP): 67% w/w | Vol. loaded ([1]; maximal loading in SAF Mannan): 112.5 µL | % Loaded w/w ([1]; maximal loading in SAF Mannan): 100% w/w
